# Experimental data taken from paper PMC12018195, “A conserved phosphorylation mechanism for regulating the interaction between the CMG replicative helicase and its forked DNA substrate” (The Journal of Biological Chemistry, 2025).
# Assays:
# Test in all cases: radiometric kinase assay, SDS-PAGE
# Assay type in all cases: biochemical
# human (Hs) Chk2 = target: T1, human (Hs) Chk2 (Homo sapiens, UniProt O96017); details: phosphate donor, 300 μM ATP spiked with labelled compound; acceptor histone H1 / Cdc25 peptide; 10 mM Mg acetate, pH 7.6, 30 °C
# T1 construct: gene CHEK2
# T1 sequence (O96017 whole entry): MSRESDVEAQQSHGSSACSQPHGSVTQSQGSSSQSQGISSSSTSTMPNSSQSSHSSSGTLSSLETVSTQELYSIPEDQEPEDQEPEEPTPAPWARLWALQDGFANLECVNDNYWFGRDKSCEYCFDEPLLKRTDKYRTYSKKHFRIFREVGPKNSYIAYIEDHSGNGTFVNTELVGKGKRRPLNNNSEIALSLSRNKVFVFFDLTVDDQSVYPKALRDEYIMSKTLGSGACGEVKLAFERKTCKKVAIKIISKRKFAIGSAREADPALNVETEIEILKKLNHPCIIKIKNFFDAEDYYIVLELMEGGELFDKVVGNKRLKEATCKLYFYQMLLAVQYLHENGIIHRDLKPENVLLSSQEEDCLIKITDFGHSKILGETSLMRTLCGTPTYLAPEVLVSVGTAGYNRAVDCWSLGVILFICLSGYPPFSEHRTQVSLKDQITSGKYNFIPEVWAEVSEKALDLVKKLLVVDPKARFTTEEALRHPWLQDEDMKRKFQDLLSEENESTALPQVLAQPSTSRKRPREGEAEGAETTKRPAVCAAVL
# mouse (Mm) Chk2 = target: T2, mouse (Mm) Chk2 (Mus musculus, UniProt Q9Z265); details: phosphate donor, 300 μM ATP spiked with labelled compound; acceptor histone H1 / Cdc25 peptide; 10 mM Mg acetate, pH 7.6, 30 °C
# T2 construct: gene Chek2
# T2 sequence (Q9Z265 whole entry): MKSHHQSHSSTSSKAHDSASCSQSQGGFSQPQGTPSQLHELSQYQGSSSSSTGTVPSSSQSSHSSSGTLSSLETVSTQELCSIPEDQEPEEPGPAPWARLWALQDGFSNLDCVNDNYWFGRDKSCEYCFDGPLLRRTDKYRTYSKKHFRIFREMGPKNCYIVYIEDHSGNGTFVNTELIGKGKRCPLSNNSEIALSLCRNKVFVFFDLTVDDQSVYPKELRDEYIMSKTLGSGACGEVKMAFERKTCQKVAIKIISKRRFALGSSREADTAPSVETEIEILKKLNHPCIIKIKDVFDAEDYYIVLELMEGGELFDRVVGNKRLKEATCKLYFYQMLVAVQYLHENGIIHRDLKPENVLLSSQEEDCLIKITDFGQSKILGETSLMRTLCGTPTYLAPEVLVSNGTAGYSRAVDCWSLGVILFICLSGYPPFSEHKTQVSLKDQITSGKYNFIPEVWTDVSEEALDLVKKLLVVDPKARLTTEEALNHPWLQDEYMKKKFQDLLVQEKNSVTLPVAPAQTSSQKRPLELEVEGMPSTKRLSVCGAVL
# human (Hs) Chk1 = target: T3, human (Hs) Chk1 (Homo sapiens, UniProt O14757); details: phosphate donor, 300 μM ATP spiked with labelled compound; acceptor MCM2-7 / CMG / histone H1; 10 mM Mg acetate, pH 7.6, 30 °C
# T3 construct: gene CHEK1
# T3 sequence (O14757 1-476): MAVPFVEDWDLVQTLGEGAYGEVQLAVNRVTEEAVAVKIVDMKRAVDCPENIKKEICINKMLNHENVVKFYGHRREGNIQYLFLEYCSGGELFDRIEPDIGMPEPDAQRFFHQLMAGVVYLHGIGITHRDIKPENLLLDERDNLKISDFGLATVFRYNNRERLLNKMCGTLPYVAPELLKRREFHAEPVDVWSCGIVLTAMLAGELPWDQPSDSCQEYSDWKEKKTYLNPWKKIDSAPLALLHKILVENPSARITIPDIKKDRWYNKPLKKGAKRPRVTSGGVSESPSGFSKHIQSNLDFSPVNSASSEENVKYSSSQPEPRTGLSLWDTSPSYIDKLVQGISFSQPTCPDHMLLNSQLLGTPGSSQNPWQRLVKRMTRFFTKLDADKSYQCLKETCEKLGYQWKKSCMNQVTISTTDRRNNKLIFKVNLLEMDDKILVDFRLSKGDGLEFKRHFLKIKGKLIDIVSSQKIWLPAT
# Drosophila (Dm) Chk1 = target: T4, Drosophila (Dm) Chk1 (Drosophila melanogaster, UniProt O61661); details: phosphate donor, 300 μM ATP spiked with labelled compound; acceptor MCM2-7 / CMG / histone H1; 10 mM Mg acetate, pH 7.6, 30 °C
# T4 construct: gene grp
# T4 sequence (O61661 1-512): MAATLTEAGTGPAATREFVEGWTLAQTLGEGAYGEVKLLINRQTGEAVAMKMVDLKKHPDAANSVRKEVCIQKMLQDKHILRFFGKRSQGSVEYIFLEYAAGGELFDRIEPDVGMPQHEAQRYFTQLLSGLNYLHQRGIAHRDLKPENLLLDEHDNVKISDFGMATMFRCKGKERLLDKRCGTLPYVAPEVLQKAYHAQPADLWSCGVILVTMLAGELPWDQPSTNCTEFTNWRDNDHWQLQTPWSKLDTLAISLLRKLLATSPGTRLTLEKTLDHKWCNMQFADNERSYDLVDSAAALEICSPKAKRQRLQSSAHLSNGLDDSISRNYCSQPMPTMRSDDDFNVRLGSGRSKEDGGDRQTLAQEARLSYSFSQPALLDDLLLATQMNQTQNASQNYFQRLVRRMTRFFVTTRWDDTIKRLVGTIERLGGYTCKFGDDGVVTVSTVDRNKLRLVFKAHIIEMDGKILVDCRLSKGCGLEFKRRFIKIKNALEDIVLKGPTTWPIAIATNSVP
smiles,measurement,setting,value
Nc1ncnc2c1ncn2[C@@H]1O[C@H](COP(=O)(O)OP(=O)(O)OP(=O)(O)O)[C@@H](O)[C@H]1O [ATP],"radiometric kinase assay, SDS-PAGE",human (Hs) Chk2,human and mouse Chk2 were able to efficiently phosphorylate Cdc25 and histone H1 control substrates
same,"radiometric kinase assay, SDS-PAGE",mouse (Mm) Chk2,human and mouse Chk2 were able to efficiently phosphorylate Cdc25 and histone H1 control substrates
same,"radiometric kinase assay, SDS-PAGE",human (Hs) Chk1,The Chk1 proteins from Drosophila and humans phosphorylated MCM2-7 with similar efficiency
same,"radiometric kinase assay, SDS-PAGE",Drosophila (Dm) Chk1,"Drosophila Chk1 phosphorylated, on average, close to one residue per MCM2-7 complex"
